pIC50: −log10 of the molar value. Where only a bound is given, the exact number is not on record here.

What all share (assay type): biochemical
The target of one experiment is T1, PIP4K2B (Homo sapiens, UniProt P78356).
T1 construct: made in house; host or cells: E. coli
T1 sequence (P78356 1-416): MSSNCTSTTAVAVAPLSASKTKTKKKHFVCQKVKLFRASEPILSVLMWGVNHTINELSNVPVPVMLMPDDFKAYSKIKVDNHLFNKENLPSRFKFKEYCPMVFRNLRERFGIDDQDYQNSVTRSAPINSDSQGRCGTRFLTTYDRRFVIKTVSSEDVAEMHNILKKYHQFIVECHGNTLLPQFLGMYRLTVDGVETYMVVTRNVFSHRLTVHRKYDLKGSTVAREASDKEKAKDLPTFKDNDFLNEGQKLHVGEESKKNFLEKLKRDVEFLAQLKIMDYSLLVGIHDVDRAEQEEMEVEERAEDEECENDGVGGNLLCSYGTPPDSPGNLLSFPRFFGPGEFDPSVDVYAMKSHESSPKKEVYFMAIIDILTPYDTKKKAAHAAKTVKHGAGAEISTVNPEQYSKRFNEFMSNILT
The experiment in a line: Trans-FI P kinase assay PIP4K2B (Table 4). The conditions noted are these: compounds listed under IC50 bins; read-out: Trans-FI P kinase assays: PIP4K2B IC50. In outline: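 Transcreener FI detection (Ex 584/Em 623) of GDP, converted via calibration curve, gives IC50 from residual activity versus log concentration (highest 4.8 μM). Reaction: 80 μM PI5P plus DOPE carrier, 100 μM GTP, 5 nM GST-tagged enzyme, pH 7.3 HEPES with MgCl2 and 5% DMSO, 2 h after 1 h enzyme-compound preincubation at 27° C.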

Experiment [1] concerns the target T2, PIP4K2A (Homo sapiens, UniProt P48426).
T2 sequence (P48426 1-406): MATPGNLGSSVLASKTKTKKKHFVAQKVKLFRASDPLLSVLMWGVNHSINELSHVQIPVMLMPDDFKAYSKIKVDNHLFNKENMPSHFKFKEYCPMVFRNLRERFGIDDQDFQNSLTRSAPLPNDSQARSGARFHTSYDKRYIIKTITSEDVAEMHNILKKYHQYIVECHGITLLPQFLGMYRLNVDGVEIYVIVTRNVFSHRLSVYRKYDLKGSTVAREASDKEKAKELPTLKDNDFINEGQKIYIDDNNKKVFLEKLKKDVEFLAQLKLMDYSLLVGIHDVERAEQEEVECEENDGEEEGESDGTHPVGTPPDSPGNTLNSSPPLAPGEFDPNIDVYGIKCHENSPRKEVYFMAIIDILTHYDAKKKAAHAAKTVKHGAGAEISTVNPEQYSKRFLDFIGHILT
The experiment in a line: ADP-glo kinase assay PIP4K 2A (Table 3). Further details: made in house; host or cells: E. coli. The conditions noted are these: compounds listed under IC50 bins. The method in brief: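 ADP-Glo luminescence detected ADP after 1 h RT reaction started by ATP (60 μM solution) on full-length PIP4K2A (4 nM in mix) and PI(5)P diC8 (100 μM in mix), preceded by 15 min enzyme-compound preincubation in MOPS pH 7.2/25 mM MgCl2. Percent inhibition versus DMSO over 10 concentrations fitted for IC50.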
In general terms: In ADP-Glo the light output rises with the ADP produced.

Experiment [2] deals with T2, PIP4K2A. The experiment in a line: Kinase Assay PIP4K2 A (Table 2). Further details: 4 nM PIP4K2A (full length protein, SignalChem); purchased SignalChem. The conditions noted are these: compounds listed under IC50 bins. The method in brief:
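ADP-Glo luminescent read-out after 1 h room-temperature kinase reaction, started with 60 μM ATP solution following 15 min compound pre-incubation. Enzyme/substrate mix: 4 nM full-length PIP4K2A plus 100 μM PI(5)P diC8; buffer MOPS pH 7.2 with 25 mM MgCl2 and Tween 20. IC50 from 10-point, 3-fold titrations normalized to DMSO.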

Regarding `COc1ncc(Nc2ccc(-c3ccc(N4CCCC4=O)cc3)cn2)cc1N(C)C(C)=O` [Example 160, N-(2-methoxy-5-((5-(4-(2-oxopyrrolidin-1-yl)phenyl)pyridin-2-yl)amino)pyridin-3-yl)-N-methylacetamide], the pIC50 at PIP4K2B, against PIP4K2A [1] and against PIP4K2A [2] was less than 6.00 throughout.

As for `COc1ncc(Nc2ccc(-c3ccc(N4CCCC4=O)cc3)cn2)cc1N(C)S(C)(=O)=O` [Example 161, N-(2-methoxy-5-((5-(4-(2-oxopyrrolidin-1-yl)phenyl)pyridin-2-yl)amino)pyridin-3-yl)-N-methylmethanesulfonamide], the pIC50 (as a rule, −log10 of the IC50, conventionally taken in molar units) on PIP4K2B is 7.00 to 8.00; on PIP4K2A [1], 6.00 to 7.00; on PIP4K2A [2], 6.00 to 7.00.

As for `O=C1CCCN1c1ccc(-c2cnc(Nc3cnc4c(c3)N3C(=O)CC[C@H]3CO4)cn2)cc1` [Example 162, (S)-2-((5-(4-(2-oxopyrrolidin-1-yl)phenyl)pyrazin-2-yl)amino)-6,6a,7,8-tetrahydro-9H-pyrido[2,3-b]pyrrolo[1,2-d][1,4]oxazin-9-one], the negative-log IC50 (pIC50) at PIP4K2B, against PIP4K2A [1] and at PIP4K2A [2] was 7.00 to 8.00 each time.

For `O=C1CCCN1c1ccc(-c2ccc(Nc3cncc(N4CCN(Cc5cscn5)C4=O)c3)nc2)cc1` [Example 163, 1-(5-((5-(4-(2-oxopyrrolidin-1-yl)phenyl)pyridin-2-yl)amino)pyridin-3-yl)-3-(thiazol-4-ylmethyl)imidazolidin-2-one], the figures for the pIC50 on PIP4K2B, against PIP4K2A [1] and against PIP4K2A [2] were 7.00 to 8.00, 8.00 to 9.00 and 8.00 to 9.00, respectively.

`O=C1CCCN1c1ccc(-c2cnc(Nc3cncc(N4CCN(Cc5cscn5)C4=O)c3)cn2)cc1` [Example 164, 1-(5-((5-(4-(2-oxopyrrolidin-1-yl)phenyl)pyrazin-2-yl)amino)pyridin-3-yl)-3-(thiazol-4-ylmethyl)imidazolidin-2-one]: the pIC50 on PIP4K2B is 7.00 to 8.00; on PIP4K2A [1], 8.00 to 9.00; against PIP4K2A [2] it was 8.00 to 9.00.

On to `O=C1CCCN1c1ccc(-c2ccc(Nc3cncc(N4CCN(Cc5cocn5)C4=O)c3)nc2)cc1` [Example 165, 1-(oxazol-4-ylmethyl)-3-(5-((5-(4-(2-oxopyrrolidin-1-yl)phenyl)pyridin-2-yl)amino)pyridin-3-yl)imidazolidin-2-one], for which the pIC50 on PIP4K2B, at PIP4K2A [1] and against PIP4K2A [2] was 7.00 to 8.00 throughout.

For `O=C1CCCN1c1ccc(-c2ccc(Nc3cncc(N4CCN(Cc5cnco5)C4=O)c3)nc2)cc1` [Example 166, 1-(oxazol-5-ylmethyl)-3-(5-((5-(4-(2-oxopyrrolidin-1-yl)phenyl)pyridin-2-yl)amino)pyridin-3-yl)imidazolidin-2-one], the pIC50 at PIP4K2B, at PIP4K2A [1] and against PIP4K2A [2] was 7.00 to 8.00 each time.

As for `CN1CCN(c2cncc(Nc3ccc(-c4ccc(N5CCCC5=O)cc4)cn3)c2)S1(=O)=O` [Example 174, 1-(4-(6-((5-(5-methyl-1,1-dioxido-1,2,5-thiadiazolidin-2-yl)pyridin-3-yl)amino)pyridin-3-yl)phenyl)pyrrolidin-2-one], the results for the negative-log IC50 (pIC50) on PIP4K2B, against PIP4K2A [1] and against PIP4K2A [2] were 7.00 to 8.00, 7.00 to 8.00 and 8.00 to 9.00, respectively.

Take `CC(C)c1cc(Nc2cnc3c(c2)N2C(=O)CC[C@H]2CO3)ncc1-c1ccc(N2CCCC2=O)cc1` [Example 177, (S)-2-((4-isopropyl-5-(4-(2-oxopyrrolidin-1-yl)phenyl)pyridin-2-yl)amino)-6,6a,7,8-tetrahydro-9H-pyrido[2,3-b]pyrrolo[1,2-d][1,4]oxazin-9-one]: the pIC50 on PIP4K2B is 8.00 to 9.00; against PIP4K2A [1] it was 8.00 to 9.00; against PIP4K2A [2] it was no less than 9.00.

`O=C1CCCN1c1ccc(-c2cnc(Nc3cnc4c(c3)N3C(=O)CC[C@H]3CO4)cc2C2CC2)cc1` [Example 178, (S)-2-((4-cyclopropyl-5-(4-(2-oxopyrrolidin-1-yl)phenyl)pyridin-2-yl)amino)-6,6a,7,8-tetrahydro-9H-pyrido[2,3-b]pyrrolo[1,2-d][1,4]oxazin-9-one]: the pIC50 on PIP4K2B, against PIP4K2A [1] and at PIP4K2A [2] was 8.00 to 9.00 each time.

`COc1cc(Nc2cnc3c(c2)N2C(=O)CC[C@H]2CO3)ncc1-c1ccc(N2CCCC2=O)cc1` [Example 179, (S)-2-((4-methoxy-5-(4-(2-oxopyrrolidin-1-yl)phenyl)pyridin-2-yl)amino)-6,6a,7,8-tetrahydro-9H-pyrido[2,3-b]pyrrolo[1,2-d][1,4]oxazin-9-one]: the figures for the negative logarithm of the IC50 (pIC50) on PIP4K2B, against PIP4K2A [1] and against PIP4K2A [2] were 8.00 to 9.00, 8.00 to 9.00 and no less than 9.00, respectively.

On to `COc1cc(Nc2cnc3c(c2)N2C(=O)CC[C@H]2CO3)ncc1-c1ccc(N2CCCC2=O)c(F)c1` [Example 183, (S)-2-((5-(3-fluoro-4-(2-oxopyrrolidin-1-yl)phenyl)-4-methoxypyridin-2-yl)amino)-6,6a,7,8-tetrahydro-9H-pyrido[2,3-b]pyrrolo[1,2-d][1,4]oxazin-9-one], for which the pIC50 on PIP4K2B is 7.00 to 8.00; on PIP4K2A [1], 8.00 to 9.00; on PIP4K2A [2], no less than 9.00.

For `Cc1nc(Nc2cnc3c(c2)N2C(=O)CC[C@H]2CO3)ccc1-c1ccc(N2CCCC2=O)cc1` [Example 190, (S)-2-((6-methyl-5-(4-(2-oxopyrrolidin-1-yl)phenyl)pyridin-2-yl)amino)-6,6a,7,8-tetrahydro-9H-pyrido[2,3-b]pyrrolo[1,2-d][1,4]oxazin-9-one], the pIC50 at PIP4K2B is 7.00 to 8.00; against PIP4K2A [1], 7.00 to 8.00; against PIP4K2A [2], 8.00 to 9.00.

As for `O=C1CCCN1c1ccc(-c2ccc(Nc3cnc4c(c3)N3C(=O)CC[C@H]3CO4)nc2)c(F)c1` [Example 191, (S)-2-((5-(2-fluoro-4-(2-oxopyrrolidin-1-yl)phenyl)pyridin-2-yl)amino)-6,6a,7,8-tetrahydro-9H-pyrido[2,3-b]pyrrolo[1,2-d][1,4]oxazin-9-one], the pIC50 at PIP4K2B was 7.00 to 8.00; at PIP4K2A [1], 7.00 to 8.00; at PIP4K2A [2] it was 8.00 to 9.00.

As for `Cc1cc(N2CCCC2=O)ccc1-c1ccc(Nc2cnc3c(c2)N2C(=O)CC[C@H]2CO3)nc1` [Example 192, (S)-2-((5-(2-methyl-4-(2-oxopyrrolidin-1-yl)phenyl)pyridin-2-yl)amino)-6,6a,7,8-tetrahydro-9H-pyrido[2,3-b]pyrrolo[1,2-d][1,4]oxazin-9-one], the pIC50 on PIP4K2B, against PIP4K2A [1] and against PIP4K2A [2] was 7.00 to 8.00 throughout.

`COCc1nc(Nc2cnc3c(c2)N2C(=O)CC[C@H]2CO3)ncc1-c1ccc(N2CCCC2=O)cc1` [Example 197, (S)-2-((4-(methoxymethyl)-5-(4-(2-oxopyrrolidin-1-yl)phenyl)pyrimidin-2-yl)amino)-6,6a,7,8-tetrahydro-9H-pyrido[2,3-b]pyrrolo[1,2-d][1,4]oxazin-9-one]: the pIC50 at PIP4K2B, against PIP4K2A [1] and on PIP4K2A [2] was 8.00 to 9.00 in each case.

Turning to `CN(C)C(=O)c1ccc(-c2ccc(Nc3cncc(N4CCN(Cc5ccc(N)cc5)C4=O)c3)nc2)cc1` [Example 222, 4-(6-((5-(3-(4-aminobenzyl)-2-oxoimidazolidin-1-yl)pyridin-3-yl)amino)pyridin-3-yl)-N,N-dimethylbenzamide], the pIC50 on PIP4K2B was 7.00 to 8.00; on PIP4K2A [1], 8.00 to 9.00; against PIP4K2A [2], no less than 9.00.

Take `CN(C)C(=O)c1ccc(-c2ccc(Nc3cncc(N4CCN(Cc5cccc(N)c5)C4=O)c3)nc2)cc1` [Example 223, 4-(6-((5-(3-(3-aminobenzyl)-2-oxoimidazolidin-1-yl)pyridin-3-yl)amino)pyridin-3-yl)-N,N-dimethylbenzamide]: the pIC50 at PIP4K2B was 7.00 to 8.00; on PIP4K2A [1] it was 8.00 to 9.00; against PIP4K2A [2] it was no less than 9.00.
